The target of this data set is T1, ABCG2 (Homo sapiens, UniProt Q9UNQ0).
T1 sequence (Q9UNQ0 1-655): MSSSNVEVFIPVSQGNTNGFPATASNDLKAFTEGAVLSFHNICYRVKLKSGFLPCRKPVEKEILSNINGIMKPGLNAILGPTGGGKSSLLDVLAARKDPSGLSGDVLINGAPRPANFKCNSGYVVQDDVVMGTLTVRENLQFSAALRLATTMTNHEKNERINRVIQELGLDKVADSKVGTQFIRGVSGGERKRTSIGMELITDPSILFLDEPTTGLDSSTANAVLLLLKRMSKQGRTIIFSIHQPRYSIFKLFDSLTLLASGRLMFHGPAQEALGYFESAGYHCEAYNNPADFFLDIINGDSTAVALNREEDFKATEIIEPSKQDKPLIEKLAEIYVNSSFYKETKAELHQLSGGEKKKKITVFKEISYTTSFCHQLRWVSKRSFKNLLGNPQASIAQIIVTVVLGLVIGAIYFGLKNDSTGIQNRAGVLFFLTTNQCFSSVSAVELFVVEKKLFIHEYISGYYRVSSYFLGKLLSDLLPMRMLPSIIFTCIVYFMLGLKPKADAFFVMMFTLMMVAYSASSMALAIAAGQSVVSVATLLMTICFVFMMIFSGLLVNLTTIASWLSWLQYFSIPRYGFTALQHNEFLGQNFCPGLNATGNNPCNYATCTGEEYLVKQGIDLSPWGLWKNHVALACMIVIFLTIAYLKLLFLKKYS
The class given is cell-based.

SMILES strings stand for the structures.

`CN(Cc1cnc2nc(N)nc(N)c2n1)c1ccc(C(=O)N[C@@H](CCC(=O)O)C(=O)O)cc1` [[^3H]-methotrexate]: the “ATP-dependent uptake into membrane vesicles (rapid filtration)” value was “inhibited the rates of both methotrexate and E217βG uptake in the membrane vesicles of ABCG2-482-R5”.

The record behind these values is PMC2843910 (Biochemical pharmacology, 2008).
